Patent US11827657B2, “Boron containing pyrazole compounds, compositions comprising them, methods and uses thereof” (BOEHRINGER INGELHEIM ANIMAL HEALTH USA INC., priority 2020, dated 2023)
pIC50: −log10 of the molar value.

Biological target: JAK1 (Homo sapiens, UniProt P23458)
Assay: Biochemical Kinase Assay (JAK), 33P-ATP filter-binding
Conditions: Biochemical Kinase Inhibition Assay; potency level of IC50; read-out: JAK1 (range)
Procedure, shortened: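 Radiometric filter-binding with 33P-ATP in pH 7.5 Hepes buffer with 10 mM MgCl2 and 1% DMSO. Compound preincubated with kinase and substrate 20 min at room temperature, reaction run 2 h at room temperature, spotted on P81 paper to give IC50.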

Sequence of JAK1 (P23458 whole entry, species assumed): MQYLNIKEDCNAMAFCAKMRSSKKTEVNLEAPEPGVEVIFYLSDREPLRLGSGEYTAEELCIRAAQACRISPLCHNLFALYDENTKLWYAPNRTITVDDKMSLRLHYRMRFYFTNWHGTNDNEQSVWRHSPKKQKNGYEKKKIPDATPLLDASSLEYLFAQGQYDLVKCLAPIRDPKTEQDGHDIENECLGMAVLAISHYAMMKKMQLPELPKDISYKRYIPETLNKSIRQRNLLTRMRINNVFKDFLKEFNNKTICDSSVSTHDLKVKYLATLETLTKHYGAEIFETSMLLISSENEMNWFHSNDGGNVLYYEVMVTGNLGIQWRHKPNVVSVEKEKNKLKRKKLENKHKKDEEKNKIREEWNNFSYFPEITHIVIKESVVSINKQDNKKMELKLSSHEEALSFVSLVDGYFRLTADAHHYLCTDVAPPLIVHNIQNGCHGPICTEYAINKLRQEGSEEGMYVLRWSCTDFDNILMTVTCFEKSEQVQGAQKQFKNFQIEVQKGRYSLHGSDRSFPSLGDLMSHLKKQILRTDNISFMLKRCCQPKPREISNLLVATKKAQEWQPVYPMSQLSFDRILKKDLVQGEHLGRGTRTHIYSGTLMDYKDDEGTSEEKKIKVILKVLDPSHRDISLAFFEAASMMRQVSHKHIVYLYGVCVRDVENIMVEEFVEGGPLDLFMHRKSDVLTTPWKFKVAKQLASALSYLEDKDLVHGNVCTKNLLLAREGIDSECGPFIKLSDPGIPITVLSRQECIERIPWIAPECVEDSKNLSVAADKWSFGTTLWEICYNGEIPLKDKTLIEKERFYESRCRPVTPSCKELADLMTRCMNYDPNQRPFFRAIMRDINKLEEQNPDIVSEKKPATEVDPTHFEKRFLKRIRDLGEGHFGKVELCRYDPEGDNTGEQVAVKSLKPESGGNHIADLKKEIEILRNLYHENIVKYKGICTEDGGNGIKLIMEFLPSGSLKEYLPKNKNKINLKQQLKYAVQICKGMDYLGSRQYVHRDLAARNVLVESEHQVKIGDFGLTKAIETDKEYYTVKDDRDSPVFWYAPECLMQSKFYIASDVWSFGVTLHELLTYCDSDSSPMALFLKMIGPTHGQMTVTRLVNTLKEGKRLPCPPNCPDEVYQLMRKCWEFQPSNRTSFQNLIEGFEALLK

CC1=Cc2cc(Nc3nn([C@@H]4COCC[C@H]4C#N)cc3C(N)=O)cc(C)c2OB1O (relative stereo) [Example 32, 1-[trans-4-cyanotetrahydro-2H-pyran-3-yl]-3-[(2-hydroxy-3,8-dimethyl-1,2-benzoxaborinin-6-yl)amino]pyrazole-4-carboxamide]
pIC50: > 8.00

N#C[C@@H]1CCOC[C@H]1n1cc(C(N)=O)c(Nc2cc3c(c(OC(F)(F)F)c2)OB(O)C=C3)n1 (single isomer, unassigned) [Example 53a, 1-[trans-4-cyanotetrahydro-2H-pyran-3-yl]-3-[[2-hydroxy-8-(trifluoromethoxy)-1,2-benzoxaborinin-6-yl]amino]pyrazole-4-carboxamide]
pIC50: < 7.30

N#C[C@@H]1CCOC[C@H]1n1cc(C(N)=O)c(Nc2cc(F)c3c(c2)COB3O)n1 (single isomer, unassigned) [Example 38b, 1-[trans-4-cyanotetrahydropyran-3-yl]-3-[(7-fluoro-1-hydroxy-3H-2,1-benzoxaborol-5-yl)amino]pyrazole-4-carboxamide]
pIC50: > 8.00

N#C[C@@H]1CCOC[C@H]1n1cc(C(N)=O)c(Nc2ccc3c(c2)C(Cl)=CB(O)O3)n1 (single isomer, unassigned) [Example 43b, 3-[(4-chloro-2-hydroxy-1,2-benzoxaborinin-6-yl)amino]-1-[trans-4-cyanotetrahydro-2H-pyran-3-yl]pyrazole-4-carboxamide]
pIC50: > 8.00

Cc1c(Nc2nn([C@@H]3COCC[C@H]3C#N)cc2C(N)=O)ccc2c1C=CB(O)O2 (single isomer, unassigned) [Example 17a, 1-[trans-4-cyanotetrahydro-2H-pyran-3-yl]-3-[(2-hydroxy-5-methyl-1,2-benzoxaborinin-6-yl)amino]pyrazole-4-carboxamide]
pIC50: < 7.30

CC1=C(C)c2cc(Nc3nn(C4COCCC4C#N)cc3C(N)=O)cc(C)c2OB1O (stereo not drawn) [Example 23, 1-(trans-4-cyanotetrahydropyran-3-yl)-3-[(2-hydroxy-3,4,8-trimethyl-1,2-benzoxaborinin-6-yl)amino]pyrazole-4-carboxamide]
pIC50: > 8.00

N#C[C@@H]1CCOC[C@H]1n1cc(C(N)=O)c(Nc2ccc3c(c2)C2CC2B(O)O3)n1 (relative stereo) [Example 57, 1-(trans-4-cyanotetrahydro-2H-pyran-3-yl)-3-[(2-hydroxy-1a,7b-dihydro-1H-cyclopropa[c][1,2]benzoxaborinin-6-yl)amino]pyrazole-4-carboxamide]
pIC50: > 8.00

Cc1c(Nc2nn([C@@H]3COCC[C@H]3C#N)cc2C(N)=O)ccc2c1C=CB(O)O2 (single isomer, unassigned) [Example 17b, 1-[trans-4-cyanotetrahydropyran-3-yl]-3-[(2-hydroxy-5-methyl-1,2-benzoxaborinin-6-yl)amino]pyrazole-4-carboxamide]
pIC50: < 7.30

N#C[C@@H]1CCOC[C@H]1n1cc(C(N)=O)c(Nc2ccc3c(c2)COB3O)n1 (single isomer, unassigned) [Example 41b, 1-(trans-4-cyanotetrahydro-2H-pyran-3-yl)-3-((1-hydroxy-1,3-dihydrobenzo[c][1,2]oxaborol-5-yl)amino)-1H-pyrazole-4-carboxamide]
pIC50: > 8.00

CC(C)(C)C1=Cc2cc(Nc3nn([C@@H]4COCC[C@H]4C#N)cc3C(N)=O)ccc2OB1O (relative stereo) [Example 19, 3-[(3-tert-butyl-2-hydroxy-1,2-benzoxaborinin-6-yl)amino]-1-(trans-4-cyanotetrahydro-2H-pyran-3-yl)pyrazole-4-carboxamide]
pIC50: > 8.00

CC1=CB(O)Oc2c(C)cc(Nc3nn([C@@H]4COCC[C@H]4C#N)cc3C(N)=O)cc21 (single isomer, unassigned) [Example 47b, 1-[trans-4-cyanotetrahydro-2H-pyran-3-yl]-3-[(2-hydroxy-4,8-dimethyl-1,2-benzoxaborinin-6-yl)amino]pyrazole-4-carboxamide]
pIC50: > 8.00
